Target: herpes protease (HSV-1 UL26 product, Pra) (Human herpesvirus 1, UniProt P10210)
Format: biochemical

Chain of herpes protease (HSV-1 UL26 product, Pra) (P10210 whole entry, looked up): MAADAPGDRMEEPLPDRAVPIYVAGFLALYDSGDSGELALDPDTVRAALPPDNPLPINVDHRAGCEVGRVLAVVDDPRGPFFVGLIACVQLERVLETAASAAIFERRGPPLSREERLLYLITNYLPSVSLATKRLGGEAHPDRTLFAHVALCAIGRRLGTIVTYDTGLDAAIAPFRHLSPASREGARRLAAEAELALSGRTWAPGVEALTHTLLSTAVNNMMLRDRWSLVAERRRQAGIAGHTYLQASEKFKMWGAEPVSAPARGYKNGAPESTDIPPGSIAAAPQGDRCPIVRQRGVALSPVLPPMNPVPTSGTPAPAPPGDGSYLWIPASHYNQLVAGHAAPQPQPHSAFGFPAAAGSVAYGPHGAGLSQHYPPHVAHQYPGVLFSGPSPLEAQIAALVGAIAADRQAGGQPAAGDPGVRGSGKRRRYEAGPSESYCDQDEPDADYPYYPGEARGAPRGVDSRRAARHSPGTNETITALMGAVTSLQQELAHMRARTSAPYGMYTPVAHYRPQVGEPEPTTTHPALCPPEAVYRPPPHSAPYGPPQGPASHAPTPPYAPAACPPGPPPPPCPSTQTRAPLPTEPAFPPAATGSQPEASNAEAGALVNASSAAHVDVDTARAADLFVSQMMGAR

Compound	inhibition of the protease self-cleavage	inhibition of the protease
O=S(=O)(F)Cc1ccccc1 [Phenylmethansulfonyl fluoride]	partially inhibiting	–
CCCCCCCCCCCCOS(=O)(=O)[O-].[Na+] [SDS, sodium dodecyl sulphate]	100%	–
CC(C)C[C@H](NC(=O)[C@@H](NC(=O)N[C@@H](Cc1ccccc1)C(=O)O)[C@@H]1CCN=C(N)N1)C(=O)N[C@H](C=O)Cc1ccccc1 [chymostatin]	–	100%

Reference: patent publication US6410704B1 (priority 1991, dated 2002)
